Results on nine compounds are retold here after patent US20240360134A1, “PYRAZOLOPYRIMIDINES AND THEIR USES AS PDGFR INHIBITORS” (priority 2021, published 2024).

Experiment [1] deals with Tb-labeled inactive PDGFRβ (Homo sapiens (Human), UniProt P09619). Put plainly: biochemical. Format: binding. The following applies: read-out: PDGFR Lantha IC50.
For experiment [2], the target named is His6-TEV-PDGFRβ (557-1016) (Homo sapiens (Human), UniProt P09619). Put plainly: PDGFRβ HTRF Assay. Format: biochemical. Conditions: 800 μM ATP, 0.5 μM TK-substrate biotin peptide, 30 min pre-incubation, 3 hours reaction; read-out: PDGFR HTRF IC50. How it is done: Instrumentation: a. Compound liquid handling: LabCyte Echo; b. Reagent liquid handling: Thermo Scientific Multidrop Combi; c. BMG PHERAStar multilabel plate reader.
Chain of His6-TEV-PDGFRβ (557-1016) (P09619 whole entry, looked up): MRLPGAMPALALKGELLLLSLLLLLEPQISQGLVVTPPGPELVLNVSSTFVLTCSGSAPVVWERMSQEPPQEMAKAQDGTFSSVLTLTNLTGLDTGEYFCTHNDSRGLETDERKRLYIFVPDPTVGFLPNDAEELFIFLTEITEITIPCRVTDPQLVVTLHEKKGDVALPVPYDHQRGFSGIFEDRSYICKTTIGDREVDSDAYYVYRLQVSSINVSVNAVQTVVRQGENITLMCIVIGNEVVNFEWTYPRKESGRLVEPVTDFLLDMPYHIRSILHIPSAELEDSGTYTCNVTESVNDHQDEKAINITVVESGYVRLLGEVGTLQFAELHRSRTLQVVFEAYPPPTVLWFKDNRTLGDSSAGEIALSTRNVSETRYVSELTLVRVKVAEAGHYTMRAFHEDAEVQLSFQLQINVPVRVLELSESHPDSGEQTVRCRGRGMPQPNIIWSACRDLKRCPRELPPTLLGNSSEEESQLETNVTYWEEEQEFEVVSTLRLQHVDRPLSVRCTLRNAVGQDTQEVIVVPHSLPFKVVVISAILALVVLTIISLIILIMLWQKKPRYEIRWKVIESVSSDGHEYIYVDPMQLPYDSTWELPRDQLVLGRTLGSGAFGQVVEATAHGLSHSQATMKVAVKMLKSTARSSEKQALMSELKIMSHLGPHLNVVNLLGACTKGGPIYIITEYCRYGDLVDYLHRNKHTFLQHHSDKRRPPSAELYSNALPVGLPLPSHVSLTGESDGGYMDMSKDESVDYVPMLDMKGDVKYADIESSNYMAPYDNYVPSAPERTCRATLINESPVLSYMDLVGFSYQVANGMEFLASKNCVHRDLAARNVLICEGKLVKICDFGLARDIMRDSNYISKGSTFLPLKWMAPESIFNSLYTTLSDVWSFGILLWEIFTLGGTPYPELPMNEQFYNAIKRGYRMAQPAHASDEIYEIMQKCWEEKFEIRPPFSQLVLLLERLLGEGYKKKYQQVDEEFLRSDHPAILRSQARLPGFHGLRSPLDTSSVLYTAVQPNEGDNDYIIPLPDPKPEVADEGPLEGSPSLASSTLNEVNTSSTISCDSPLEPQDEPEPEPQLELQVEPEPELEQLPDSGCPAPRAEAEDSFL
Protein Reagent: His6-TEV-PDGFRβ Protein Prep prepared at Accelagen.
Assay buffer stock solution, contains 50 mM Hepes, 10 mM MgCl2, 1 mM EGTA, and 0.01% Brij-35, 0.01% ovalbumin, 2 mM DTT at pH 7.5, in molecular biology grade water. Store at room temperature.
Assay buffer. Dilute 5× Kinase buffer 5-fold with molecular biology grade water and add DTT to 2 mM and ovalbumin to 0.1 mg/mL (or 0.01%).
2× protein solution. Make a working solution of […] PDGFRβ in assay buffer. Keep on ice until use to maintain enzyme stability.
2× substrate solution. Make a working solution of 1.6 mM ATP and 1 μM TK-substrate biotin peptide in assay buffer. 3× quench/detection solution.
Step 2. PDGFRβ E+I pre-incubation: Add 2 μL 2× protein solution to columns 1-24 using the Multidrop Combi. Centrifuge at 1000 rpm for 1 min. Incubate 30 min at RT
Step 2. Enzymatic reaction: Add 2 μL substrate solution to columns 1-24 to initiate the reaction using the Multidrop Combi; cover/seal the assay plate to reduce evaporation. Centrifuge at 1000 rpm for 1 min. Incubate at room temperature for 3 hours.
Final concentrations of components in PDGFRp cascade assay:
0.5 μM TK-substrate biotin peptide
Step 3. Quench/Detection: Add 2 μl 3× quench/detection solution to columns 1-24 using the Multidrop Combi; cover/seal the plate. Centrifuge 1 min 1000 rpm. Incubate at RT for 60 min.
HTRF ratio values calculated by the instrument (Ratio is acceptor counts/donor counts*10,000) is exported from the plate reader and used in data analysis. The exported data will be used to calculate 1) compound activity and 2) assay statistics. […] Assay statistics can include Robust Z′ and Signal to Background.
% Inhibition Calculation: Percent inhibition will be calculated for sample wells based on the equation: […]
IC50 Calculation: For IC50 determination, full 11-point dose response data will be processed using the following equation: […]

Experiment [3] concerns the target VEGFR2, unphosphorylated (Homo sapiens (Human), UniProt P35968). Put plainly: VEGFR ADP GLO assay. Format: biochemical. The following applies: 5 nM VEGFR2, 1.2 mM ATP, 1 mg/mL Srctide, 180 min. As for the experimental part: Assay buffer stock contains 50 mM HEPES pH7.5, 10 mM MgCl2, 0.01% Brij-35, and 1 mM EGTA.
Unphosphorylated VEGFR2. 52.6 μM in 50 mM Tris-HCl, pH 8.0, 50 mM NaCl, 5% Glycerol, 0.5 mM TCEP. Store at −80° C. in aliquots.
10 mg/mL srctide solution, prepared in Assay buffer (Assay buffer stock with 2 mM DTT, 0.1% Pluronic F-127, and 0.1 mg/mL ovalbumin). Sonicate 10 mg/ml Srctide solution for 10 minutes and then vacuum filter.
Assay buffer. Add DTT to 2 mM, Pluronic F-127 to 0.1% and ovalbumin to 0.1 mg/mL to Assay buffer stock.
2× kinase solution. Make a working solution of 10 nM unphosphorylated VEGFR2 in Assay buffer. Vacuum filter 2× kinase solution prior to running assay. Keep on ice until use.
2× substrate/ATP solution. Make a working solution of 2 mg/mL srctide and 2.4 mM ATP in Assay buffer. Keep on ice until use.
Step 1. Dispensing inhibitors/controls: Using Echo, dispense 10 nL/well compound serial dilutions in DMSO to columns 1-22 (in 384-well plates) or columns 1-44 (in 1536-well plates). Dilution series=11 pt, 3-fold dilutions. The top compound concentration in the source plate is 4 mM. The top compound concentration in the assay plate is 10 uM. Using Echo, dispense 10 nl/well DMSO to column 23 (in 384-well plates) or columns 45-47 (in 1536-well plates). These wells will serve as negative control wells Using Echo, dispense 10 nl/well 400 uM TAK-593 in DMSO to column 24 (in 384-well plates) or column 48 (in 1536-well plates). The final concentration of TAK-593 in the assay should be 1 uM. These wells will serve as positive control wells.
Step 2. Pre-incubation of inhibitors with kinase: Add 2 μL/well 2× kinase solution. Centrifuge at 1000 rpm for 1 min. Incubate at room temperature for 30 min.
Step 3. Kinase cascade reaction: Add 2 μL/well 2× substrate/ATP solution to initiate kinase reactions. Centrifuge at 1000 rpm for 1 min. Incubate at room temperature for 180 min.
Final concentrations of components in the assay:
Step 4. Quench: Add 2 uL/well ADP Glo Reagent+0.05% CHAPS. Centrifuge at 1000 rpm for 1 min; Incubate at room temperature for one hour.
Step 5. Detection: Add 2 uL/well Kinase Detection Reagent+0.05% CHAPS. Centrifuge at 1000 rpm for 1 min; Incubate at room temperature for 1 hour; Read Luminescence on a plate reader.
% Inhibition: % Inhibition=(NC−sample)/(NC−PC)*100 where NC is the mean of negative control (reactions without inhibitor), and PC is the mean of positive control (1 μM TAK-593).
IC50 values are determined from a 4-parameter fit, using the following equation: Y=Bottom+(Top−Bottom)/(1+10^(Log IC50-X)*Hill Slope), where X=log10 of the compound concentration; top can be defined by PC; bottom defined by NC.

Experiment [4] concerns the target PDGFRβ (Rattus norvegicus (Rat), UniProt Q05030). Put plainly: PDGFRβ Cellular Assay (PDGFRb P-Y751 HTRF, PDGF-BB stimulated A10 cells). The following applies: A10 cells, 3 hours compound, 15 ng/mL PDGFbb for 10 minutes; read-out: PDGFR Cellular IC50. Format: cell-based. How it is done:
Cell Culture and Preparation: Cells are cultured according to ATCC procedure (5) with the addition of the antibiotic penicillin-streptomycin. If working from frozen, cells should be thawed according to ATCC procedure. Depending on the cell density of frozen vial, cells will need time to recover from thaw. An 80% confluent T75 flask should be enough for one 384 well plate.
Stock Solutions: Rat PDGFBB. A 100 ug/mL stock is prepared by reconstituting 50 ug in 500 μL of 4 mM HCl and 0.1% BSA. It can be stored for a month at 4° C., or aliquoted out and frozen in the −20/−80° C. to avoid multiple free-thaw cycles.
1× Cisbio cell lysis buffer. The cell lysis buffer is diluted 4-fold with molecular grade water. The blocking agent is then diluted 25-fold in the diluted lysis buffer.
Antibody solutions. Equal amounts d2 and cryptate antibody are diluted 20-fold in detection buffer.
Rat PDGFBB. A working stock of 100 ng/mL is created from the stock solution in 10% FBS culture media.
Step 1: Plating Cells: Media from the A10 cell flask is aspirated. The cells are rinsed with PBS and then trypsinized to disperse the cell layer. The cells are then pelleted are resuspended to 1.25e5 cells/mL. […] Plates are covered and placed in the incubator (37° C. 5% CO2) overnight to allow cells to adhere.
Step 2: Compound Dispense: Approximately 18 hours after plating, dispense 40 nL compound onto cells using Echo. […] The plate is returned to the incubator for 3 hours.
After 10 minutes the media is removed by flicking the plate.
Step 4: Cell lysis and antibody addition: 20 uL lysis buffer per well is added to the plate via Tempest. 5 uL antibody solution is added per well via the Tempest. The plate is placed on the shaker at 230 rpm for 1 hour at room temperature.
Step 5: Detection: The plate is read using the HTRF module on the BMG Pherastar. Data is analyzed using Genedata Screener.
IC50 values are determined from a 4-parameter fit, using the following equation: Y=Bottom+(Top−Bottom)/(1+10((Log IC50−X)*Hill slope)), where X=log10 of the compound concentration; top can be defined by PC; bottom defined by NC.

Molecules are shown by their SMILES. Bounds are passed on as bounds.

Chain of PDGFRβ (Q05030 whole entry, looked up): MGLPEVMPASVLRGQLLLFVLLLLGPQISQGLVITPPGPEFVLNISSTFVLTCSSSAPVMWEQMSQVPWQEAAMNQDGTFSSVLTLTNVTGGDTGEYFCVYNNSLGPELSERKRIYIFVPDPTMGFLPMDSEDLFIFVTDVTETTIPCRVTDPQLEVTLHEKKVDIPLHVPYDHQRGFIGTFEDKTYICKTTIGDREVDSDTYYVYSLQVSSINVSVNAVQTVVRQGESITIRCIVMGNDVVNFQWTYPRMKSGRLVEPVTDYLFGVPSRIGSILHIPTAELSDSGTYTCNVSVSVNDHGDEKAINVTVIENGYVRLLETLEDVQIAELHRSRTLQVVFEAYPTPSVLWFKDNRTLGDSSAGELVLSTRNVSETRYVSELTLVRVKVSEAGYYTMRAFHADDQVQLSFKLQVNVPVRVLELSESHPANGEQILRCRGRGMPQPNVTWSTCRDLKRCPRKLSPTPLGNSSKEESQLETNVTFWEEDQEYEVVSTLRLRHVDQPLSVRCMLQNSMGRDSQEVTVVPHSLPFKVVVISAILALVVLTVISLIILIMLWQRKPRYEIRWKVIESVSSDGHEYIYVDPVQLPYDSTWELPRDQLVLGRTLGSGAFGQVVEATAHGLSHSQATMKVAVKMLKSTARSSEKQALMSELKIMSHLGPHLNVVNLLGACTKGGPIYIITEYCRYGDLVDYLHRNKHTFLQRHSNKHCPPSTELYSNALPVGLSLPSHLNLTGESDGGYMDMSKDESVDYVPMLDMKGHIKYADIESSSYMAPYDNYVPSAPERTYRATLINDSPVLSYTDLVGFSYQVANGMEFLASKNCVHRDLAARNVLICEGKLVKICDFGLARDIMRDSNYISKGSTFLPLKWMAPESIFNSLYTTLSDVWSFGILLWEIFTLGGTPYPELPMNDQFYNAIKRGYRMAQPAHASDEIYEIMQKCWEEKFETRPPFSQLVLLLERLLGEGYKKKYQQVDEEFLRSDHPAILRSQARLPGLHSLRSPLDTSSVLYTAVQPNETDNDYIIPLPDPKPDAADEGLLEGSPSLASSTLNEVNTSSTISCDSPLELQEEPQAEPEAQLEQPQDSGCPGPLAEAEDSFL
Chain of Tb-labeled inactive PDGFRβ (P09619 whole entry, looked up): as the sequence (P09619 whole entry, looked up) above
Chain of VEGFR2, unphosphorylated (P35968 whole entry, looked up): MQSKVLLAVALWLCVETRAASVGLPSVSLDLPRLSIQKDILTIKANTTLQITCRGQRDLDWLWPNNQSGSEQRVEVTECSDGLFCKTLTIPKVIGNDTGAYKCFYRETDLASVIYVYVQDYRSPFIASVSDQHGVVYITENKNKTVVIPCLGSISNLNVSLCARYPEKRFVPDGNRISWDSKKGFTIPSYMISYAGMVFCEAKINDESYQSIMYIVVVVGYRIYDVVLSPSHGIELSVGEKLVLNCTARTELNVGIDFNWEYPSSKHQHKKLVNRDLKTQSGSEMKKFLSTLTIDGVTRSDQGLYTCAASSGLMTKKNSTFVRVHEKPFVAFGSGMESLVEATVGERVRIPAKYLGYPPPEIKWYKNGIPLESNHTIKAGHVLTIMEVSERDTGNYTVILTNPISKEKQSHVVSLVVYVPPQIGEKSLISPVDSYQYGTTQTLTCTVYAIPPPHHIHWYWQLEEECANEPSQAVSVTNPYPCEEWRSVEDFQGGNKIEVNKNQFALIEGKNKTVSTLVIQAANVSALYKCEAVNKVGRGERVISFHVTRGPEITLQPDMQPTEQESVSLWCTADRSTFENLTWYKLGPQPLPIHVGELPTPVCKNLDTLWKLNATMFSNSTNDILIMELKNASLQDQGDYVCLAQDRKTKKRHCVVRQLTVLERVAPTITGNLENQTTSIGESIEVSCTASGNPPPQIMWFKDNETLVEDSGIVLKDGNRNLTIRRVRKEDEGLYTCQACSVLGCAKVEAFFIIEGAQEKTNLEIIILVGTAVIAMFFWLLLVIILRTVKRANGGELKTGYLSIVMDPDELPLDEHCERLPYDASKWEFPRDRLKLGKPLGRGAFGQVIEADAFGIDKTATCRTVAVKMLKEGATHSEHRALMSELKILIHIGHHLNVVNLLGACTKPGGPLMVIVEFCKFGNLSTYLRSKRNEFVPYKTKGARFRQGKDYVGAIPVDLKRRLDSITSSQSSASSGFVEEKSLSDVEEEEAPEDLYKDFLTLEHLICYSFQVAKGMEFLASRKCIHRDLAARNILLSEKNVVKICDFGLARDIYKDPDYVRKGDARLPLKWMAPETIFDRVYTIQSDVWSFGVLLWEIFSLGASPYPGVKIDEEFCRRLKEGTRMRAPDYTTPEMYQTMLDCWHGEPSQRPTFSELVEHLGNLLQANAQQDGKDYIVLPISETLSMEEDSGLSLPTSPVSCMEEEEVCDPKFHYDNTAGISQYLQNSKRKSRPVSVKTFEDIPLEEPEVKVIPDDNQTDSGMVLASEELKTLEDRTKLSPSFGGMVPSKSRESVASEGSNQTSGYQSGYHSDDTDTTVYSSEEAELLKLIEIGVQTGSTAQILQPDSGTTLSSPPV

For the compound `Cc1ncc(C(=O)NCCN2CCC(C)(C)C2)cc1Nc1nn(C)c2nc(Nc3cnn(C)c3)ncc12` [Example 86, N-(2-(3,3-dimethylpyrrolidin-1-yl)ethyl)-6-methyl-5-((1-methyl-6-((1-methyl-1H-pyrazol-4-yl)amino)-1H-pyrazolo[3,4-d]pyrimidin-3-yl)amino)nicotinamide], the IC50 in experiment [1] was 2.2 nM; in experiment [2], 0.33 nM; in experiment [3] it was > 7500 nM; in experiment [4] it was 18.2 nM.

Turning to `Cc1ncc(C(=O)NCCN2CCCC2(C)C)cc1Nc1nn(C)c2nc(Nc3ccnc(N)c3)ncc12` [Example 41, 5-((6-((2-aminopyridin-4-yl)amino)-1-methyl-1H-pyrazolo[3,4-d]pyrimidin-3-yl)amino)-N-(2-(2,2-dimethylpyrrolidin-1-yl)ethyl)-6-methylnicotinamide], the IC50 was 3.2 nM in experiment [1], 0.36 nM in experiment [2], > 7500 nM in experiment [3] and 115 nM in experiment [4].

In the case of `COCCn1cc(Nc2ncc3c(Nc4cc(NC(=O)CN5CC6CCC5CC6)cnc4C)nn(C)c3n2)cn1` [Example 127, 2-(2-azabicyclo[2.2.2]octan-2-yl)-N-(5-((6-((1-(2-methoxyethyl)-1H-pyrazol-4-yl)amino)-1-methyl-1H-pyrazolo[3,4-d]pyrimidin-3-yl)amino)-6-methylpyridin-3-yl)acetamide], the half-maximal inhibitory concentration (IC50) in experiment [1] was determined as 1.4 nM; in experiment [2] it was 0.27 nM; in experiment [3], 6490 nM; in experiment [4] it was 2.6 nM.

For the compound `Cc1ncc(C(=O)NCCN2CCOCC23CC3)cc1Nc1nn(C)c2nc(Nc3cncnc3)ncc12` [Example 13, N-(2-(7-oxa-4-azaspiro[2.5]octan-4-yl)ethyl)-6-methyl-5-((1-methyl-6-(pyrimidin-5-ylamino)-1H-pyrazolo[3,4-d]pyrimidin-3-yl)amino)nicotinamide], the 50% inhibitory concentration (IC50) in experiment [1] was 12.8 nM; in experiment [2], 1.55 nM; in experiment [3] it was > 7500 nM; in experiment [4] it was 152 nM.

With `Cc1ncc(C(=O)NCCC2CCCCC2)cc1Nc1nn(C)c2nc(Nc3ccnc(N4CCN(CCO)CC4)c3)ncc12` [Example 110, N-(2-cyclohexylethyl)-5-((6-((2-(4-(2-hydroxyethyl)piperazin-1-yl)pyridin-4-yl)amino)-1-methyl-1H-pyrazolo[3,4-d]pyrimidin-3-yl)amino)-6-methylnicotinamide], the IC50 in experiment [1] is 3.9 nM; in experiment [2] it was 0.77 nM; in experiment [3], 143 nM; in experiment [4], 108 nM.

Regarding `Cc1ncc(NC(=O)CN2CCCC2(C)C)cc1Nc1nn(C)c2nc(Nc3cnn(C)c3)ncc12` [Example 70, 2-(2,2-dimethylpyrrolidin-1-yl)-N-(6-methyl-5-((1-methyl-6-((1-methyl-1H-pyrazol-4-yl)amino)-1H-pyrazolo[3,4-d]pyrimidin-3-yl)amino)pyridin-3-yl)acetamide], the IC50 in experiment [1] worked out at 1.8 nM; in experiment [2] it was 0.2 nM; in experiment [3], 6170 nM; in experiment [4], 0.9 nM.

Regarding `Cc1ncc(C(=O)NCCN2CCCC[C@H]2C)cc1Nc1nn(C)c2nc(Nc3cncnc3)ncc12` [Example 11, (R)-6-methyl-5-((1-methyl-6-(pyrimidin-5-ylamino)-1H-pyrazolo[3,4-d]pyrimidin-3-yl)amino)-N-(2-(2-methylpiperidin-1-yl)ethyl)nicotinamide], the concentration for half-maximal inhibition (IC50) was 5.8 nM in experiment [1], 0.68 nM in experiment [2], ~6630 nM in experiment [3] and 68.8 nM in experiment [4].

Consider `COc1ncccc1Nc1ncc2c(Nc3cc(NC(=O)CN4CCC[C@@H]4C)cnc3C)nn(C)c2n1` [Example 146, (S)—N-(5-((6-((2-methoxypyridin-3-yl)amino)-1-methyl-1H-pyrazolo[3,4-d]pyrimidin-3-yl)amino)-6-methylpyridin-3-yl)-2-(2-methylpyrrolidin-1-yl)acetamide], for which the IC50 in experiment [1] is 19.7 nM; in experiment [2], 2.33 nM; in experiment [3] it was > 7500 nM; in experiment [4] it was 14.1 nM.

For `Cc1ncc(C(=O)NCCN2CCCC2(C)C)cc1Nc1nn(C)c2nc(NC3CCS(=O)(=O)CC3)ncc12` [Example 45, N-(2-(2,2-dimethylpyrrolidin-1-yl)ethyl)-5-((6-((1,1-dioxido-tetrahydro-2H-thiopyran-4-yl)amino)-1-methyl-1H-pyrazolo[3,4-d]pyrimidin-3-yl)amino)-6-methylnicotinamide], the half-maximal inhibitory concentration (IC50) in experiment [1] is 1640 nM; in experiment [2], 51 nM; in experiment [3] it was > 10000 nM.
